Laboratory results: patent publication US20050196362A1, “Personal care compositions containing highly branched primary alcohol component” (priority 2004, published 2005)
Each block holds one molecule with its values, some of them ahead of it.

Columns and labels:
[1] = Pigment dispersion: amount of Z-cote dispersed before viscosity reaches 10,000 cps; type: physicochemical; details: 100 g solubilizer/dispersant; Brookfield RVT 20 rpm, 25° C.
Method: (§1) The branched primary alcohol component and the Z-cote were mixed for 15 minutes at 5000 rpm using a Silverson mixer to form a dispersion of zinc oxide in the alcohol component. The dispersion was allowed to equilibrate to room temperature (25° C.), and then viscosity measurements were taken using a Brookfield (RTM) RVT Viscometer set at 20 rpm. Additional Z-cote was then added to the branched alcohol component in incremental amounts of 15 g. Viscosity measurements were taken after mixing each incremental amount of Z-cote with the branched alcohol component for 15 minutes and after allowing the resulting dispersion to return to room temperature. When the viscosity of the dispersion reached or exceeded 10,000 cps no further additions of Z-cote were made and no further viscosity measurements were taken. A target viscosity of 10,000 cps was selected since a dispersion having a viscosity of greater than 10,000 cps is not preferred for use in a sunscreen composition.
From FIG. 1, the amount of Z-cote needed to provide a dispersion having a viscosity of 10,000 cps may be determined for each solubilizer/dispersant.
(§2) Pigment Dispersion: Pigment was added to a 100 gm of emollient sample. The mixture was blended using a Silverson mixer for 15 minutes at 5000 rpm. The viscosity was measured after the sample had equilibrated to room temperature.

[2] = Pigment dispersion: amount of Eusolex T2000 dispersed before viscosity reaches 10,000 cps; type: physicochemical; details: 100 g solubilizer/dispersant; Brookfield RVT 20 rpm, 25° C.
Method: as §1, §2

[3] = Pigment dispersion: amount of Z-cote HP1 dispersed before viscosity reaches 10,000 cps; type: physicochemical; details: 100 g solubilizer/dispersant; Brookfield RVT 20 rpm, 25° C.
Method: as §1, §2

[4] = In vitro SPF of sunscreen formulation with dispersing agent; details: sunscreen formulation with 15.00 % by weight dispersing agent; artificial medium
Method: (§3) This example compares the alcohol of the present invention to several other dispersing agents in terms of in vitro SPF and viscosity. In vitro SPF means that the test was not carried out on human skin, but an artificial medium. The sunscreen formulation is manufactured as follows. The ingredients of Phase A are combined together at 75° C. The ingredients of Phase B are combined together at 75° C. Phase B is then added to Phase A. Phase C is added to the resulting mixture, followed by cooling of the mixture to 40° C. and adding Phase D. The formulation is ready for packaging at a temperature of 35° C.

[5] = Viscosity of sunscreen formulation with dispersing agent; type: physicochemical; details: sunscreen formulation with 15.00 % by weight dispersing agent
Method: as §3

[6] = Viscosity of lotion/moisturizer emulsions containing the fatty alcohol; type: physicochemical
Method: Solubility: Two emulsion types (W/O-water-in-oil night cream/lotion and O/W-oil-in-water moisturizer lotion) were prepared. Both types of products incorporated commonly used cosmetic ingredients. The C1617 MM MO and the Guerbet C16 alcohols were used at 15% in the W/O lotion and 10% in the moisturizer.
MO C1617 mono-methyl branched primary alcohol was formulated in a water-in-oil night cream and an oil-in-water moisturizer formula as indicated in Tables 8 and 10 respectively. The viscosity and formula properties of the MO methyl-branched primary alcohol were evaluated relative to a branched C18 emollient alcohol and the data is indicated in Tables 9 and 11 respectively.

[7] = Oven stability test of W/O and O/W lotions; type: physicochemical; details: 90 days at 23° C. and 45° C.
Method: Stability Tests: All W/O and O/W lotions were placed on stability testing for phase and odor stability monitoring for 90 days at 23° C. (room temperature) and 45° C.

[8] = Freeze/Thaw testing of prototype formulation (3 cycles); type: physicochemical; details: three 24 hr. freeze/thaw cycles
Method: Freeze/Thaw testing: Phase stability was observed using approximately 30 ml of a prototype formulation. After preparation, the samples were cooled until solid for 24 hrs. They were allowed to equilibrate to room temperature when the appearance of the formulation was recorded. This process was repeated for three 24 hr. freeze/thaw cycles.

[9] = Solubility profile of branched emollient alcohols in cosmetic solvents; type: physicochemical; parameters: key: +: Soluble; +/−: Dispersible
[10] = Table 8 formulation, 15.0 % wt fatty alcohol
[11] = Table 10 oil-in-water moisturizer, 10.0 % wt fatty alcohol

Amount in grams of Z-cote needed to give a viscosity of 10,000 cps [1]: 24 grams | Amount in grams of Eusolex T2000 needed to give a viscosity of 10,000 cps [2]: 35 grams | Amount in grams of Z-cote HP1 needed to give a viscosity of 10,000 cps [3]: 65 grams
Molecule: octyldodecyl neopentanoate [Elefac I-205]

Viscosity, cps [5]: 13000 cps
Molecule: CCCCCCCCCCCCCCCC(=O)OCC(CC)CCCC (centres unmarked) [Ethylhexylpalmitate]
In-vitro SPF [4]: 22.73

Viscosity, cps [6, 10]: 7,600 cps | Viscosity, cps [6, 11]: 11,300 cps | Oven Stability [7, 10]: Pass | Oven Stability [7, 11]: Pass | Freeze-Thaw (3 cycles) [8, 10]: Pass | Freeze-Thaw (3 cycles) [8, 11]: Pass | Viscosity, cps [5]: 2700 cps | Solubility ([9]; C12-15 Alkyl Benzoate (90%), @ 25° C.): + | Solubility ([9]; C12-15 Alkyl Benzoate (90%), @ 50° C.): + | Solubility ([9]; Dimethicone 245 (90%), @ 25° C.): + | Solubility ([9]; Dimethicone 245 (90%), @ 50° C.): + | Solubility ([9]; Isododecane (90%), @ 25° C.): + | Solubility ([9]; Isododecane (90%), @ 50° C.): + | Solubility ([9]; Isohexadecane (90%), @ 25° C.): + | Solubility ([9]; Isohexadecane (90%), @ 50° C.): + | Solubility ([9]; Isopropylmyristyl Alcohol (90%), @ 25° C.): + | Solubility ([9]; Isopropylmyristyl Alcohol (90%), @ 50° C.): + | Solubility ([9]; Mineral Oil (90%), @ 25° C.): + | Solubility ([9]; Mineral Oil (90%), @ 50° C.): + | Solubility ([9]; Octocrylene (30%), @ 25° C.): + | Solubility ([9]; Octocrylene (30%), @ 50° C.): + | Solubility ([9]; Octyl Dimethyl Paba (30%), @ 25° C.): + | Solubility ([9]; Octyl Dimethyl Paba (30%), @ 50° C.): + | Solubility ([9]; Octyldodecanol (90%), @ 25° C.): + | Solubility ([9]; Octyldodecanol (90%), @ 50° C.): + | Solubility ([9]; Propylene Glycol (90%), @ 25° C.): +/− | Solubility ([9]; Propylene Glycol (90%), @ 50° C.): + | Solubility ([9]; Sesame Oil (90%), @ 25° C.): + | Solubility ([9]; Sesame Oil (90%), @ 50° C.): +
Molecule: CCCCCCCCC(CO)CCCCCC (centres unmarked) [Guerbet C16 Branched]
In-vitro SPF [4]: 22.6

Amount in grams of Z-cote needed to give a viscosity of 10,000 cps [1]: 20 grams | Amount in grams of Eusolex T2000 needed to give a viscosity of 10,000 cps [2]: 34 grams | Amount in grams of Z-cote HP1 needed to give a viscosity of 10,000 cps [3]: 50 grams
Molecule: CCCCCCCCOC(=O)CCCCCCCCC(=O)OCCCCCCCC [Dioctyl sebacate (DOS), Dioctyl sebacate]
